Source: the kinase profiling compilation of Christmann-Franck et al. (2016)
Where “and” joins values, the source holds several entries; their conditions need not be identical. Identical values can stand only once.

Assays:
Test in all cases: radiometric filter-binding kinase assay, Kinase HotSpot
Conditions in all cases: compound 0.5 µM; ATP 10 µM
ADRBK1 (human) = ADRBK1 (human) (UniProt P25098)
CAMK1 (human) = CAMK1 (human) (UniProt Q14012)
CDK6 CCND1 (human) = CDK6 CCND1 (human) (UniProt Q00534+P24385)
CDK9 CCNT1 (human) = CDK9 CCNT1 (human) (UniProt P50750+O60563)
CLK4 (human) = CLK4 (human) (UniProt Q9HAZ1)
CSNK1A1 (human) = CSNK1A1 (human) (UniProt P48729)
EPHB1 (human) = EPHB1 (human) (UniProt P54762)
FGFR2 (human) = FGFR2 (human) (UniProt P21802)
FGFR2 (human), sequence (P21802 whole entry, looked up): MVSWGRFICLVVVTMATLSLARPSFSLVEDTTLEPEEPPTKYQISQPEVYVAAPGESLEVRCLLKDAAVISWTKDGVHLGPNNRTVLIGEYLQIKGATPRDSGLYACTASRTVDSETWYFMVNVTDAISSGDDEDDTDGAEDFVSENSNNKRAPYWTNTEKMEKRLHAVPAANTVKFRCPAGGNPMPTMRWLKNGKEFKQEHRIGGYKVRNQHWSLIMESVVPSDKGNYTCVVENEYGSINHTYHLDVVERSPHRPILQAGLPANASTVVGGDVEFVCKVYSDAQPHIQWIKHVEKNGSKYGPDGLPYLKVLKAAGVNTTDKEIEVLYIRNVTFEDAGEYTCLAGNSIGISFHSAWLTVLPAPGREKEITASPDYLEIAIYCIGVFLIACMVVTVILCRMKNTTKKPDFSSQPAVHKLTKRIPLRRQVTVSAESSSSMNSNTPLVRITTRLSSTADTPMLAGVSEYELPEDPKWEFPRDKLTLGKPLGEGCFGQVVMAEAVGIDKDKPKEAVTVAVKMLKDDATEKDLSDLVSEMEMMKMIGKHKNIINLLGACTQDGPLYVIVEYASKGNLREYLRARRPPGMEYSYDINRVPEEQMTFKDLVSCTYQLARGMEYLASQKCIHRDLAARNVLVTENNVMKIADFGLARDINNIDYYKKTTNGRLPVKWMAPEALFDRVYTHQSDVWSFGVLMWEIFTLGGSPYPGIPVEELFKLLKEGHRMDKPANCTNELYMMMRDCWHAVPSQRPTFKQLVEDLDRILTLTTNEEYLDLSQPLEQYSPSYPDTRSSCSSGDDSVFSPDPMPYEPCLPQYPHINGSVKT

FYN (human) = FYN (human) (UniProt P06241)
[1] = target: JAK1 JH1 catalytic (human) (UniProt P23458)
JAK1 JH1 catalytic (human), sequence (P23458 whole entry, looked up): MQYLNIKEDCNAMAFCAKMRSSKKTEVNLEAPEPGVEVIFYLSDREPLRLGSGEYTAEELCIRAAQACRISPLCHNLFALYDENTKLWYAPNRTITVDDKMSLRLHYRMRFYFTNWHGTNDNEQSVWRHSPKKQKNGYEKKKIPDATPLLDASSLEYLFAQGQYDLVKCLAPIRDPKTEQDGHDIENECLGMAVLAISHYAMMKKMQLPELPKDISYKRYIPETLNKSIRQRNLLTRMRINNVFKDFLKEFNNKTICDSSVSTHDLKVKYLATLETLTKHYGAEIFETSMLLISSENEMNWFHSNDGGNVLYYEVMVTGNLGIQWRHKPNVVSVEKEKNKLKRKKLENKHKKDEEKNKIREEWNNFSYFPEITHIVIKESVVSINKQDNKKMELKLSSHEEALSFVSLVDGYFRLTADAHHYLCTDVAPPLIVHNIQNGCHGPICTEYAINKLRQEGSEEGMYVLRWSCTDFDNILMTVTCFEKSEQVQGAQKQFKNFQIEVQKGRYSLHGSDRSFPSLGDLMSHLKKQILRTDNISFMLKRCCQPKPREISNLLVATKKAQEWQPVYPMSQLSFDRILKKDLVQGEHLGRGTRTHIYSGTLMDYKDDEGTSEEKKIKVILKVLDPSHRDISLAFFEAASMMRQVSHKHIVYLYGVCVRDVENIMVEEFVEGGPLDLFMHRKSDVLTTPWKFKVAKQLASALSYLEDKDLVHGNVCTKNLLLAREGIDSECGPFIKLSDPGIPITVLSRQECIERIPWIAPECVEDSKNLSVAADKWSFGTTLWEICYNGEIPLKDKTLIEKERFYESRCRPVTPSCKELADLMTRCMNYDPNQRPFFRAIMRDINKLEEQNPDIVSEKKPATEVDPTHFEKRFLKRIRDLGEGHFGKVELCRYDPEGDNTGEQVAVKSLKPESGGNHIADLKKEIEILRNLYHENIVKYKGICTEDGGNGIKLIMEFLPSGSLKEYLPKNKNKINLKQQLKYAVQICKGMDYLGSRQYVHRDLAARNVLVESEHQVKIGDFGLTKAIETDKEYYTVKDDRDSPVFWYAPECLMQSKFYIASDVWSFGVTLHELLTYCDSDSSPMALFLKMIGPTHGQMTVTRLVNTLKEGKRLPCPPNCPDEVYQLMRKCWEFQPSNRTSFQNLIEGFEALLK

KDR (human) = KDR (human) (UniProt P35968)
KIT (human) = KIT (human) (UniProt P10721)
LTK (human) = LTK (human) (UniProt P29376)
LTK (human), sequence (P29376 whole entry, looked up): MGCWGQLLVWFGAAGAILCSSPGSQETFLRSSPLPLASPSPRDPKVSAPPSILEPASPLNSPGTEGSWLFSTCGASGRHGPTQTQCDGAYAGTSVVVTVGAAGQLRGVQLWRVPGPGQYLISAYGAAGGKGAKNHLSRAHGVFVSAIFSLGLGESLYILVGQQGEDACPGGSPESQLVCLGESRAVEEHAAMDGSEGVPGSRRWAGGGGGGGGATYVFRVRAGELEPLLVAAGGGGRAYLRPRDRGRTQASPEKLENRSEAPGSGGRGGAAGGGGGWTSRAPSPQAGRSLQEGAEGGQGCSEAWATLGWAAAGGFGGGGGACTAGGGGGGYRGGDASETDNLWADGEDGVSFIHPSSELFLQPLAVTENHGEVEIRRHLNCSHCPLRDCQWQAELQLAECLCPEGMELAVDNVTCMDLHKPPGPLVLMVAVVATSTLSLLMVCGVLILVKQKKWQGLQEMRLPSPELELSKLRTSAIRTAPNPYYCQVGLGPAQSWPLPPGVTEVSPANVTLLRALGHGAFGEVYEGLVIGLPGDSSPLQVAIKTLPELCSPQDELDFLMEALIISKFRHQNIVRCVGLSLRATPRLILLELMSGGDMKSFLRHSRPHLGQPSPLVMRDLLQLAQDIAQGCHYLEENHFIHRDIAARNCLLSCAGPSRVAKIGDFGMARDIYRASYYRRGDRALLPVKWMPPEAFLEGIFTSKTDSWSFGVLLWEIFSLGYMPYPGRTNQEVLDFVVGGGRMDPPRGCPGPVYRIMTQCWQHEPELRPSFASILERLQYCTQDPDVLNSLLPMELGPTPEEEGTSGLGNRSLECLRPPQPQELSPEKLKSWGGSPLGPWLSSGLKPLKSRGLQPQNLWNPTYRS

LYN (human) = LYN (human) (UniProt P07948)
MAP3K11 (human) = MAP3K11 (human) (UniProt Q16584)
MAPK3 (human) = MAPK3 (human) (UniProt P27361)
MAPK9 (human) = MAPK9 (human) (UniProt P45984)
MELK (human) = MELK (human) (UniProt Q14680)
MLTK (human) = MLTK (human) (UniProt Q9NYL2)
NEK1 (human) = NEK1 (human) (UniProt Q96PY6)
NEK11 (human) = NEK11 (human) (UniProt Q8NG66)
NEK3 (human) = NEK3 (human) (UniProt P51956)
NTRK2 (human) = NTRK2 (human) (UniProt Q16620)
NTRK3 (human) = NTRK3 (human) (UniProt Q16288)
NUAK1 (human) = NUAK1 (human) (UniProt O60285)
NUAK1 (human), sequence (O60285 whole entry, looked up): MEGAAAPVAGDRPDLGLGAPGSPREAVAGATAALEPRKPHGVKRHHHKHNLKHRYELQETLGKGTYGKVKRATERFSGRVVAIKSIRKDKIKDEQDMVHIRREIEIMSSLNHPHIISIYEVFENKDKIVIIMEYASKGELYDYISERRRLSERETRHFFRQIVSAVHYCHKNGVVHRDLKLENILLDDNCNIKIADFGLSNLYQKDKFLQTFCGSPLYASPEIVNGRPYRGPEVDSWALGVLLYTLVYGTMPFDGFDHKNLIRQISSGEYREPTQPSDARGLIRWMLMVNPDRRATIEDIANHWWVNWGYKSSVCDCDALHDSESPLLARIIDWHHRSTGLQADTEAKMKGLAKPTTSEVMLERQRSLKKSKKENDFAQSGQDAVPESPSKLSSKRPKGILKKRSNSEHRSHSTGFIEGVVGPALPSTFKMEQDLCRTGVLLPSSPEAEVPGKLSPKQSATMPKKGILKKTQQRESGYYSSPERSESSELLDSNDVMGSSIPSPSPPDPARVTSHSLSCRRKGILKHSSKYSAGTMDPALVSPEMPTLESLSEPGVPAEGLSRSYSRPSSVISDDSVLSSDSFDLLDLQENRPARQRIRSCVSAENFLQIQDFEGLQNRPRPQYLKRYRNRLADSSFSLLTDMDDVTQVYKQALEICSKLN

PAK6 (human) = PAK6 (human) (UniProt Q9NQU5)
PAK6 (human), sequence (Q9NQU5 whole entry, looked up): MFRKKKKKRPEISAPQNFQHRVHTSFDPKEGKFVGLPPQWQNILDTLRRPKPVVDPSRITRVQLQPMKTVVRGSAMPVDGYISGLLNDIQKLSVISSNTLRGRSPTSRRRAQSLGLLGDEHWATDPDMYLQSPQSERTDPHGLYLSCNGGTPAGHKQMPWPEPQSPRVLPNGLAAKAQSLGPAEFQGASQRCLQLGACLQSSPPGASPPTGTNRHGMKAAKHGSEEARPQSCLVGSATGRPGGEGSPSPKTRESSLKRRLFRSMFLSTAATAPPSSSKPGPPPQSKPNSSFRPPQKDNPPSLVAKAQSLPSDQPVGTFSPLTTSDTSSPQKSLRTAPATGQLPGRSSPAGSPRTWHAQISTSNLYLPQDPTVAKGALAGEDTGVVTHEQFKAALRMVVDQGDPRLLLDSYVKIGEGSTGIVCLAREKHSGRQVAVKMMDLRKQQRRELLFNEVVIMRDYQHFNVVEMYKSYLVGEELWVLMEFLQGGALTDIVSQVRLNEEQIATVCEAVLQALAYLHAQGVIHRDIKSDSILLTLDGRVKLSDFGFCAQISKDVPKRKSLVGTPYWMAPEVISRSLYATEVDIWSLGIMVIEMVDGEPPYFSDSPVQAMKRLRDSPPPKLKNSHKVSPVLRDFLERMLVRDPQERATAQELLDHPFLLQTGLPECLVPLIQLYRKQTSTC

PHKG2 (human) = PHKG2 (human) (UniProt P15735)
PHKG2 (human), sequence (P15735 whole entry, looked up): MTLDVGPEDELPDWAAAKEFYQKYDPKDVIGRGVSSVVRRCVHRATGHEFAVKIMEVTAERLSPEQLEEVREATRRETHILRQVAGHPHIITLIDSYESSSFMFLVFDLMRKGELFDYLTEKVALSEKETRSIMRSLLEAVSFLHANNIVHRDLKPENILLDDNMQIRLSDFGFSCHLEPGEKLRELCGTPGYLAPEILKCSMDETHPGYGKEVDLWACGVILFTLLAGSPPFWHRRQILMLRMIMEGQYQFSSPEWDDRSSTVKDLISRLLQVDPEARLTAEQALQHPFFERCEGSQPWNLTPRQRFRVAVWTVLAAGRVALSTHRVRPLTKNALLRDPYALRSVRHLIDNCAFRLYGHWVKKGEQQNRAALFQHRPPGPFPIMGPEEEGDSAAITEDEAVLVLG

PNCK (human) = PNCK (human) (UniProt Q6P2M8)
PRKCH (human) = PRKCH (human) (UniProt P24723)
PRKG1 (human) = PRKG1 (human) (UniProt Q13976)
PTK2 (human) = PTK2 (human) (UniProt Q05397)
PTK6 (human) = PTK6 (human) (UniProt Q13882)
PTK6 (human), sequence (Q13882 whole entry, looked up): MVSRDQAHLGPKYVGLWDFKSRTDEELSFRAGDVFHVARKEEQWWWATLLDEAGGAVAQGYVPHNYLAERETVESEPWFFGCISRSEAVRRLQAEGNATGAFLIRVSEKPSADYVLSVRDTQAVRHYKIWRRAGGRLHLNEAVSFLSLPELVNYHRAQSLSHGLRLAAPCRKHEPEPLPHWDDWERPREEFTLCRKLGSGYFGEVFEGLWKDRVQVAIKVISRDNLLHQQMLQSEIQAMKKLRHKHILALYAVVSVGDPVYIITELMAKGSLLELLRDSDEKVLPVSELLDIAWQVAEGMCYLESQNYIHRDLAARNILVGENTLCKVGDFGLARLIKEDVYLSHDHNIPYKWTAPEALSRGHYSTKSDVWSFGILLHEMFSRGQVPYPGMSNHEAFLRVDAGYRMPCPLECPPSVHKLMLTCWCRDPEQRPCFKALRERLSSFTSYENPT

RET (human) = RET (human) (UniProt P07949)
RPS6KA1 KD1 KD2 (human) = RPS6KA1 KD1 KD2 (human) (UniProt Q15418)
RPS6KA5 KD2 (human) = RPS6KA5 KD2 (human) (UniProt O75582)
RPS6KB2 (human) = RPS6KB2 (human) (UniProt Q9UBS0)
SRMS (human) = SRMS (human) (UniProt Q9H3Y6)
SRPK1 (human) = SRPK1 (human) (UniProt Q96SB4)
SRPK2 (human) = SRPK2 (human) (UniProt P78362)
STK24 (human) = STK24 (human) (UniProt Q9Y6E0)
TTK (human) = TTK (human) (UniProt P33981)
ULK1 (human) = ULK1 (human) (UniProt O75385)

**Q.** For `CCCNC(=O)Nc1ccc(Oc2ncnc3cc(OC)c(OC)cc23)cc1Cl`, which residual activity (ADRBK1 (human)) is on record?
**A.** 103%

**Q.** And the residual activity (CAMK1 (human))?
**A.** 96.7%

**Q.** What about the residual activity (CDK6 CCND1 (human)) of the same compound?
**A.** 92.9%

**Q.** What about the residual activity (CDK9 CCNT1 (human)) of the same compound?
**A.** 98%

**Q.** What about the residual activity (CLK4 (human)) of the same compound?
**A.** 94.2%

**Q.** What about the residual activity (CSNK1A1 (human)) of the same compound?
**A.** 98.9%

**Q.** What about the residual activity (EPHB1 (human)) of the same compound?
**A.** 95.5%

**Q.** What about the residual activity (FGFR2 (human)) of the same compound?
**A.** 91.3%

**Q.** What about the residual activity (FYN (human)) of the same compound?
**A.** 92.7%

**Q.** And the residual activity [1]?
**A.** 99.2%

**Q.** And the residual activity (KDR (human))?
**A.** 19.7%

**Q.** What about the residual activity (KIT (human)) of the same compound?
**A.** 39.2%

**Q.** And the residual activity (LTK (human))?
**A.** 95.7%

**Q.** What about the residual activity (LYN (human)) of the same compound?
**A.** 75.5% and 94.1%

**Q.** What about the residual activity (MAP3K11 (human)) of the same compound?
**A.** 89.2%

**Q.** And the residual activity (MAPK3 (human))?
**A.** 105%

**Q.** What about the residual activity (MAPK9 (human)) of the same compound?
**A.** 104%

**Q.** And the residual activity (MELK (human))?
**A.** 86.8%

**Q.** And the residual activity (MLTK (human))?
**A.** 103%

**Q.** What about the residual activity (NEK1 (human)) of the same compound?
**A.** 91.8%

**Q.** What about the residual activity (NEK11 (human)) of the same compound?
**A.** 101%

**Q.** And the residual activity (NEK3 (human))?
**A.** 93.8%

**Q.** And the residual activity (NTRK2 (human))?
**A.** 102%

**Q.** And the residual activity (NTRK3 (human))?
**A.** 89%

**Q.** What about the residual activity (NUAK1 (human)) of the same compound?
**A.** 92.3%

**Q.** What about the residual activity (PAK6 (human)) of the same compound?
**A.** 106%

**Q.** What about the residual activity (PHKG2 (human)) of the same compound?
**A.** 84.1%

**Q.** What about the residual activity (PNCK (human)) of the same compound?
**A.** 95.4%

**Q.** What about the residual activity (PRKCH (human)) of the same compound?
**A.** 101%

**Q.** And the residual activity (PRKG1 (human))?
**A.** 76.8% and 95.4%

**Q.** And the residual activity (PTK2 (human))?
**A.** 99.6%

**Q.** What about the residual activity (PTK6 (human)) of the same compound?
**A.** 48.3%

**Q.** What about the residual activity (RET (human)) of the same compound?
**A.** 8.42%

**Q.** And the residual activity (RPS6KA1 KD1 KD2 (human))?
**A.** 92.3%

**Q.** And the residual activity (RPS6KA5 KD2 (human))?
**A.** 95.6%

**Q.** What about the residual activity (RPS6KB2 (human)) of the same compound?
**A.** 104%

**Q.** What about the residual activity (SRMS (human)) of the same compound?
**A.** 105%

**Q.** And the residual activity (SRPK1 (human))?
**A.** 102%

**Q.** What about the residual activity (SRPK2 (human)) of the same compound?
**A.** 91.1%

**Q.** What about the residual activity (STK24 (human)) of the same compound?
**A.** 91.7%

**Q.** What about the residual activity (TTK (human)) of the same compound?
**A.** 88.6%

**Q.** What about the residual activity (ULK1 (human)) of the same compound?
**A.** 83.2%

**Q.** What does the source list for `O=C1Nc2cc(Br)ccc2/C1=C1/Nc2ccccc2/C1=N\O`?
**A.** residual activity (ADRBK1 (human)): 97.3%; residual activity (CAMK1 (human)): 96%; residual activity (CDK6 CCND1 (human)): 35.9%; residual activity (CDK9 CCNT1 (human)): 68.2%; residual activity (CLK4 (human)): 97%; residual activity (CSNK1A1 (human)): 95.1%; residual activity (EPHB1 (human)): 72.3%; residual activity (FGFR2 (human)): 59.2%; residual activity (FYN (human)): 5.05%; residual activity [1]: 76.2%; residual activity (KDR (human)): 64.2%; residual activity (KIT (human)): 42.3%; residual activity (LTK (human)): 89.3%; residual activity (LYN (human)): 14.7% and 5.98%; residual activity (MAP3K11 (human)): 16%; residual activity (MAPK3 (human)): 83.3%; residual activity (MAPK9 (human)): 80.3%; residual activity (MELK (human)): 43.5%; residual activity (MLTK (human)): 69%; residual activity (NEK1 (human)): 93.8%; residual activity (NEK11 (human)): 118%; residual activity (NEK3 (human)): 84.4%; residual activity (NTRK2 (human)): 10.3%; residual activity (NTRK3 (human)): 4.98%; residual activity (NUAK1 (human)): 15.7%; residual activity (PAK6 (human)): 86.3%; residual activity (PHKG2 (human)): 92.5%; residual activity (PNCK (human)): 105%; residual activity (PRKCH (human)): 78.6%; residual activity (PRKG1 (human)): 89% and 93.6%; residual activity (PTK2 (human)): 89%; residual activity (PTK6 (human)): 89.3%; residual activity (RET (human)): 0.0602%; residual activity (RPS6KA1 KD1 KD2 (human)): 47.2%; residual activity (RPS6KA5 KD2 (human)): 82.6%; residual activity (RPS6KB2 (human)): 100%; residual activity (SRMS (human)): 99.6%; residual activity (SRPK1 (human)): 94.9%; residual activity (SRPK2 (human)): 63.9%; residual activity (STK24 (human)): 90.9%; residual activity (TTK (human)): 69.8%; residual activity (ULK1 (human)): 95.3%

**Q.** For `O=C1Nc2ccccc2/C1=C\c1c(Cl)[nH]c2ccccc12`, which residual activity (ADRBK1 (human)) is on record?
**A.** 98.9%

**Q.** What about the residual activity (CAMK1 (human)) of the same compound?
**A.** 106%

**Q.** What about the residual activity (CDK6 CCND1 (human)) of the same compound?
**A.** 105%

**Q.** And the residual activity (CDK9 CCNT1 (human))?
**A.** 98.4%

**Q.** And the residual activity (CLK4 (human))?
**A.** 105%

**Q.** And the residual activity (CSNK1A1 (human))?
**A.** 102%

**Q.** And the residual activity (EPHB1 (human))?
**A.** 90.8%

**Q.** And the residual activity (FGFR2 (human))?
**A.** 102%

**Q.** And the residual activity (FYN (human))?
**A.** 101%

**Q.** What about the residual activity [1] of the same compound?
**A.** 96.6%

**Q.** And the residual activity (KDR (human))?
**A.** 96.3%

**Q.** And the residual activity (KIT (human))?
**A.** 90.2%

**Q.** What about the residual activity (LTK (human)) of the same compound?
**A.** 95.1%

**Q.** And the residual activity (LYN (human))?
**A.** 93.6% and 99.7%

**Q.** What about the residual activity (MAP3K11 (human)) of the same compound?
**A.** 100%

**Q.** What about the residual activity (MAPK3 (human)) of the same compound?
**A.** 109%

**Q.** And the residual activity (MAPK9 (human))?
**A.** 101%

**Q.** What about the residual activity (MELK (human)) of the same compound?
**A.** 85.7%

**Q.** And the residual activity (MLTK (human))?
**A.** 99.2%

**Q.** What about the residual activity (NEK1 (human)) of the same compound?
**A.** 96.7%

**Q.** What about the residual activity (NEK11 (human)) of the same compound?
**A.** 98.5%

**Q.** What about the residual activity (NEK3 (human)) of the same compound?
**A.** 91.2%

**Q.** And the residual activity (NTRK2 (human))?
**A.** 95%

**Q.** And the residual activity (NTRK3 (human))?
**A.** 92.9%

**Q.** What about the residual activity (NUAK1 (human)) of the same compound?
**A.** 86%

**Q.** What about the residual activity (PAK6 (human)) of the same compound?
**A.** 101%

**Q.** And the residual activity (PHKG2 (human))?
**A.** 84.2%

**Q.** What about the residual activity (PNCK (human)) of the same compound?
**A.** 92.9%

**Q.** What about the residual activity (PRKCH (human)) of the same compound?
**A.** 73.6%

**Q.** What about the residual activity (PRKG1 (human)) of the same compound?
**A.** 92.5% and 93.6%

**Q.** What about the residual activity (PTK2 (human)) of the same compound?
**A.** 101%

**Q.** And the residual activity (PTK6 (human))?
**A.** 76.9%

**Q.** What about the residual activity (RET (human)) of the same compound?
**A.** 93%

**Q.** And the residual activity (RPS6KA1 KD1 KD2 (human))?
**A.** 105%

**Q.** And the residual activity (RPS6KA5 KD2 (human))?
**A.** 85.5%

**Q.** What about the residual activity (RPS6KB2 (human)) of the same compound?
**A.** 99.4%

**Q.** And the residual activity (SRMS (human))?
**A.** 84.2%

**Q.** What about the residual activity (SRPK1 (human)) of the same compound?
**A.** 94.2%

**Q.** And the residual activity (SRPK2 (human))?
**A.** 94.4%

**Q.** And the residual activity (STK24 (human))?
**A.** 81.5%

**Q.** What about the residual activity (TTK (human)) of the same compound?
**A.** 101%

**Q.** What about the residual activity (ULK1 (human)) of the same compound?
**A.** 106%
